Data as given in patent US20250282742A1, “BENZOFURAN DERIVATIVES FOR TARGETING AUTOPHAGY” (Automera PTE. LTD, priority 2024, published 2025).

How the values were obtained:
[1] = tested on: p62 oligomers in HeLa cells; experiment: p62 oligomerization assay (Western blot, 24 h treatment); format: cell-based; conditions: fold change of p62 oligomer levels relative to DMSO control
Description: (§1) HeLa cells were seeded in 6-well plates (700,000 cells) and allowed to adhere overnight. Media was replaced one hour before administering either vehicle (DMSO) or test compounds. After 24 hours of treatment, the media was discarded, and cells were rinsed once with ice-cold 1×PBS before detached from plates with ice-cold RIPA Lysis and Extraction Buffer (Thermo Fisher Scientific) which was supplemented with protease and phosphatase inhibitors. The resulting cell suspensions were transferred to pre-chilled microcentrifuge tubes, incubated on ice for 20 min with intermittent mixing and then centrifuged at 12,000 rpm for 20 min at 4° C. The supernatants were then aspirated slowly and transferred into new tubes kept on ice. The protein concentration in the samples was determined using BCA kit (Thermo Fisher Scientific) as per manufacturer's instructions.
(§2) For the p62 oligomerization and LC3 lipidation assays, cell lysates were prepared using RIPA buffer supplemented with 2% SDS and benzonase (Sigma). The lysates were then combined with 4× Laemmli protein sample buffer (Bio-Rad), heated at 70° C. for 10 min and subjected to a brief centrifugation of 10-15 seconds.
(§3) For p62 oligomerization and LC3 lipidation assays, lysates containing 30 μg of protein and for BRD4 and FKBP12(F36V) degradation assays, lysates containing 20 μg of protein, were loaded slowly into the wells of 4-20% gradient Tris-glycine gels (Bio-Rad). The gels were run at 100V until completion and transferred onto PVDF membranes. Membranes were blocked using 5% milk in TBS-Tween (0.1%) buffer at room temperature for 1 hour. The membranes were incubated with primary antibody in 5% milk-TBST with shaking, overnight at 4° C. The primary antibodies used were: p62 (Novus Biologicals 2C11, H00008878-MO1), LC3A/B (Cell Signalling Technology D3U4C, 12741S), FKBP12 (Abcam ab24373), BRD4 (Cell Signalling Technology E2A7X, 13440S), GAPDH (Cell Signalling Technology D4C6R, 97166S), and β-Actin (Proteintech 66009-1-Ig). Following primary antibody incubation, membranes were washed thrice with TBST 10 min before and after incubation with secondary-HRP conjugated antibody in 5% milk-TBST for 1 hour at room temperature. The secondary antibodies used were: Anti-Mouse IgG HRP Conjugate (Promega W4021B) and Anti-Rabbit IgG HRP Conjugate (Promega W4011B). For the p62 oligomerization assay, the total protein levels were assessed using Ponceau staining (Thermo Fisher Scientific) of PVDF membrane as per recommendation by manufacturer's guidelines.
(§4) Imaging was acquired using SuperSignal™ West Pico PLUS Chemiluminescent Substrate (Thermo Fisher Scientific) with iBright Invitrogen FL100 imaging system. Band signal intensity, reflective of protein concentrations, were quantified using Invitrogen™ iBright™ Analysis and Image J software.
HeLa cells were treated with compounds for 24 hours to evaluate the effect of these compounds on p62 oligomerisation activity. The resulting changes in levels of p62 oligomers were assessed by Western blotting, as described in experimental procedures. The fold change of p62 oligomer levels induced by compound treatment relative to vehicle control (DMSO) was determined and summarized in Table 8. Specifically, FIGS. 2A-C show Western blot images and their corresponding quantification showing the levels of high molecular weight (100-200 kDa) p62 oligomers by 24 hours compound treatments at listed concentrations, relative to vehicle control (DMSO) in HeLa cells. Protein loading consistencies was assessed by Ponceau staining (not shown).

[2] = tested on: LC3 protein (LC3-II/LC3-I) in HeLa cells; experiment: LC3 lipidation assay (LC3-II/LC3-I, Western blot, 24 h treatment); format: cell-based; conditions: fold change in LC3-II/LC3-I relative to DMSO control
Description: as §1, §2, §3, §4
HeLa cells were treated with compounds for 24 hours to evaluate the effect of these compounds on LC3-II/LC3-I levels, a measure of autophagy activation. The changes in levels of LC3-I, LC3-II and β-Actin (loading control) were assessed by Western blotting, as described in experimental procedures. The fold increase of LC3-II/LC3-I levels induced by compound treatment relative to vehicle control (DMSO) was determined and summarized in Table 9. Specifically, FIGS. 3A-C show Western blot images and their corresponding quantification showing the lipidation levels of LC3 protein (LC3-II/LC3-I) by 24 hours compound treatments at listed concentrations, relative to vehicle control (DMSO) in HeLa cells.

[3] = target: T1, Recombinant p62 protein (Homo sapiens, UniProt Q13501); experiment: Surface plasmon resonance (SPR) compound binding to immobilised p62; conditions: recombinant p62, 15° C
T1 construct: Recombinant p62 protein was buffer exchanged into Biacore SPR running buffer
Description: Example 28: Surface Plasmon Resonance (SPR) Analysis
Recombinant p62 protein was buffer exchanged into Biacore SPR running buffer (Cytiva 100671) using the Slide-A-Lyzer Mini Dialysis system 7K MWCO (Thermo Fisher Scientific, Cat no. 69560). The final protein concentration was determined using the Nanodrop One spectrophotometer (Thermo Fisher Scientific, cat no. ND-ONE-W), with calibration for the dialysis buffer.
The prepared protein was diluted in sodium acetate buffer (NaAc, pH 5.5, Cytiva) to concentrations ranging from approximately 0.25-40 μg/mL. Post-immobilization, the protein required approximately 16 hours of equilibration in running buffer supplemented with 1% DMSO at 15° C. to ensure adequate surface equilibration and protein reorganization.
All SPR experiments were conducted at a constant temperature of 15° C. The SPR chip surface was activated using EDC/NHS for a contact time of 6-10 min at a flow rate of 10 μL/min. This was followed by protein immobilization for 2100 seconds and ethanolamine capping for 420 seconds, both at the same flow rate. Immediately after immobilization, the NH2—REEE peptide was analyzed in Single Cycle Kinetics mode (SCK) to verify surface activity, ensuring it binds the sample with the published affinity (−20 μM by SPR).
For general compound binding studies, experiments were performed at 15° C. using a running buffer composed of 10 mM HEPES, 150 mM NaCl, 1 mM DTT, 0.05% Tween 20, and 1% DMSO at pH 7.4. The test compound was initially prepared at a 20 mM concentration in DMSO and subsequently titrated in 2-fold dilutions. For each assay, 2 μL of the compound was mixed with 198 μL of the running buffer, and the mixture was thoroughly pipetted approximately 15 times for homogenization.
A series of blank injections (0 μM concentration) were included for double referencing, with at least 8 or 16 per plate depending on the format. Typical injection parameters were 120 seconds for association and 180 seconds for dissociation at a flow rate of […]. A four-point solvent correction was prepared with DMSO concentrations ranging from 2% to 0.5% in the buffer. Post each compound injection, the system's needles were washed with 50% DMSO.
Analysis of the SPR data was conducted using the Cytiva Evaluation software. The binding levels at the late time-point of each interaction were corrected for reference, then normalized to percentage bound values to account for variations in immobilization levels, protein molecular weight, and compound molecular weight.
Compound binding studies were carried out according to experimental procedures above and SPR % occupancy was determined and summarized in Table 7.

[4] = target: T2, BRD4 in HeLa cells (Homo sapiens, UniProt O60885); experiment: BRD4 degradation assay (Western blot, 24 h treatment); format: cell-based; conditions: doses up to 10 μM
T2 construct: endogenous in cells; host or cells: HeLa
Description: as §1
For the BRD4 degradation assay, cell lysates were prepared with RIPA buffer containing 0.25% SDS. These were mixed with 4× Laemmli protein sample buffer (Bio-Rad) supplemented with beta-mercaptoethaol (355 mM). The lysates were then heated at 95° C. for 5 min, and briefly centrifuged for 10-15 seconds.
For p62 oligomerization and LC3 lipidation assays, lysates containing 30 μg of protein and for BRD4 and FKBP12(F36V) degradation assays, lysates containing 20 μg of protein, were loaded slowly into the wells of 4-20% gradient Tris-glycine gels (Bio-Rad). The gels were run at 100V until completion and transferred onto PVDF membranes. Membranes were blocked using 5% milk in TBS-Tween (0.1%) buffer at room temperature for 1 hour. The membranes were incubated with primary antibody in 5% milk-TBST with shaking, overnight at 4° C. […] For the p62 oligomerization assay, the total protein levels were assessed using Ponceau staining (Thermo Fisher Scientific) of PVDF membrane as per recommendation by manufacturer's guidelines.
as §4
To evaluate levels of protein degradation by compounds 100-103, HeLa cells were treated with the corresponding compounds at doses up to 10 μM for 24 hours. The changes in levels of BRD4 and GAPDH (loading control) were assessed by Western blotting, as described in experimental procedures. Results are summarized in Table 11 below, measured by percentage change in BRD4 levels by compound treatment relative to vehicle (DMSO) control.

T1 sequence (Q13501 whole entry, species assumed): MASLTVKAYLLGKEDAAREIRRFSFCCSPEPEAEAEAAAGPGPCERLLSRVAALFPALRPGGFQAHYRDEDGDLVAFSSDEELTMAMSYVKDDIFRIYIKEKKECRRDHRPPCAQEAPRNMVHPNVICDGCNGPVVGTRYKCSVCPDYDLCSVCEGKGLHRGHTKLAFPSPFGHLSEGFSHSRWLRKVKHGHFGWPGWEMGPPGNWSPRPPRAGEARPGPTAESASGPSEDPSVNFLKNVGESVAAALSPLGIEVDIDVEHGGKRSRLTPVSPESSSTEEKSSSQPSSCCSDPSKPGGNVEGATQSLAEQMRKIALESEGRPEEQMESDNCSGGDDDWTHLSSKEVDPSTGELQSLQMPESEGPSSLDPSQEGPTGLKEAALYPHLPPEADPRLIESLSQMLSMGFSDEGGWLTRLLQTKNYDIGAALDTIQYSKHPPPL

Compound	p62 oligomerization [1]	LC3 lipidation [2]	receptor occupancy at 100 µM [3]	Degradation (change in BRD4 levels relative to DMSO control) [4]
CC(C)NCCOCc1ccc2cc(Cc3ccccc3)oc2c1 [Compound 7, N-(2-((2-benzylbenzofuran-6-yl)methoxy)ethyl)propan-2-amine]	++ (> 2-fold change relative to DMSO control)	++ (> 2-fold change in LC3-II/LC3-I relative to DMSO control)	30 to 70%	–
CC(C)NCC(O)COc1ccc2cc(Cc3ccccc3)oc2c1 (stereo not shown) [Compound 9, 1-((2-benzylbenzofuran-6-yl)oxy)-3-(isopropylamino)propan-2-ol]	+ (< 2-fold change relative to DMSO control)	++ (> 2-fold change in LC3-II/LC3-I relative to DMSO control)	> 70%	–
OCCNCc1ccc2cc(CNC3CCCC(O)C3)oc2c1 (stereo not shown) [Compound 33, 3-(((6-(((2-hydroxyethyl)amino)methyl)benzofuran-2-yl)methyl)amino)cyclohexan-1-ol]	+ (< 2-fold change relative to DMSO control)	+ (< 2-fold change in LC3-II/LC3-I relative to DMSO control)	30 to 70%	–
OCCNCc1ccc2c(Cc3ccccc3)coc2c1 [Compound 43, 2-(((3-benzylbenzofuran-6-yl)methyl)amino)ethan-1-ol]	+ (< 2-fold change relative to DMSO control)	++ (> 2-fold change in LC3-II/LC3-I relative to DMSO control)	30 to 70%	–
OCCNCc1ccc2cc(CCc3ccccc3)oc2c1 [compound 3]	++ (> 2-fold change relative to DMSO control)	++ (> 2-fold change in LC3-II/LC3-I relative to DMSO control)	30 to 70%	–
CC(O)CNCc1ccc2cc(Cc3ccccc3)oc2c1 (stereo not shown) [compound 5]	+ (< 2-fold change relative to DMSO control)	+ (< 2-fold change in LC3-II/LC3-I relative to DMSO control)	30 to 70%	–
CNCCOCc1ccc2cc(Cc3ccccc3)oc2c1 [compound 8]	++ (> 2-fold change relative to DMSO control)	+ (< 2-fold change in LC3-II/LC3-I relative to DMSO control)	30 to 70%	–
OC1CC(NCc2ccc3cc(Cc4ccccc4)oc3c2)C1 (stereo not shown) [compound 10]	++ (> 2-fold change relative to DMSO control)	+ (< 2-fold change in LC3-II/LC3-I relative to DMSO control)	30 to 70%	–
OCCNCc1ccc2cc(Cc3cccc(Cl)c3)oc2c1 [compound 15]	++ (> 2-fold change relative to DMSO control)	+ (< 2-fold change in LC3-II/LC3-I relative to DMSO control)	> 70%	–
COc1ccc(Cc2cc3ccc(CNCCO)cc3o2)cc1 [compound 17]	+ (< 2-fold change relative to DMSO control)	+ (< 2-fold change in LC3-II/LC3-I relative to DMSO control)	30 to 70%	–
O=C(Nc1ccccc1)c1cc2ccc(CNCCO)cc2o1 [compound 35]	+ (< 2-fold change relative to DMSO control)	+ (< 2-fold change in LC3-II/LC3-I relative to DMSO control)	30 to 70%	–
OCCNCc1cc(F)c2cc(Cc3ccccc3)oc2c1 [compound 37]	++ (> 2-fold change relative to DMSO control)	++ (> 2-fold change in LC3-II/LC3-I relative to DMSO control)	30 to 70%	–
Cc1sc2c(c1C)C(c1ccc(Cl)cc1)=N[C@@H](CC(=O)NCCOCCOCCOCCNCc1ccc3cc(Cc4ccccc4)oc3c1)c1nnc(C)n1-2 [compound 100, (S)-N-(1-(2-benzylbenzofuran-6-yl)-5,8,11-trioxa-2-azatridecan-13-yl)-2-(4-(4-chlorophenyl)-2,3,9-trimethyl-6H-thieno[3,2-f][1,2,4]triazolo[4,3-a][1,4]diazepin-6-yl)acetamide]	–	–	–	++ (> 2-fold change in BRD4 levels relative to DMSO control)
Cc1sc2c(c1C)C(c1ccc(Cl)cc1)=N[C@@H](CC(=O)NCCOCCOCCOCCNCc1ccc3cc(CCc4ccccc4)oc3c1)c1nnc(C)n1-2 [compound 101]	–	–	–	++ (> 2-fold change in BRD4 levels relative to DMSO control)
Cc1sc2c(c1C)C(c1ccc(Cl)cc1)=N[C@@H](CC(=O)NCCOCCNCc1ccc3cc(Cc4ccccc4)oc3c1)c1nnc(C)n1-2 [compound 102]	–	–	–	+ (< 2-fold change in BRD4 levels relative to DMSO control)
Cc1sc2c(c1C)C(c1ccc(Cl)cc1)=N[C@@H](CC(=O)NCCOCCOCCNCc1ccc3cc(Cc4ccccc4)oc3c1)c1nnc(C)n1-2 [compound 103]	–	–	–	++ (> 2-fold change in BRD4 levels relative to DMSO control)
